Measured values: ChEMBL document CHEMBL4840321, “Limonoids with Diverse Oxidation Patterns of C-12 Indicating a Complete Ring C-seco Biogenetic Pathway from Munronia unifoliolata” (J Nat Prod, 2021)
The source made the active and inactive calls. The rule behind the calls is not given here.

Legend:
[1] = tested on: RAW264.7; test: Inhibition of NO production in LPS-stimulated mouse RAW264.7 cells; type: functional, cell-based
[2] = Cytotoxicity against human MCF7-DOX cells measured after 48 hrs by MTT assay; type: cell-based
[3] = Anti-MDR activity in human MCF7-DOX cells assessed as reversal of cell resistance to doxorubicin by measuring reversal fold at 30 uM measured after 48 hrs by MTT assay; type: functional
[4] = Anti-MDR activity in human MCF7-DOX cells assessed as reversal of cell resistance to doxorubicin by measuring reversal fold at 10 uM measured after 48 hrs by MTT assay; type: functional

SMILES	inhibition [1]	Activity [2]	fold change (FC) [3]	fold change (FC) [4]
CO[C@H]1C[C@H]2[C@](C)(C3=C(C)[C@H](c4ccoc4)C[C@@H]3O1)[C@H](O)[C@@H]1OC[C@]3(C)[C@H](OC(C)=O)C[C@H](OC(=O)c4ccccc4)[C@@]2(C)[C@@H]13	inactive	Non-Toxic		
C/C=C(\C)C(=O)O[C@H]1C[C@@H](OC(C)=O)[C@@]2(C)CO[C@H]3[C@H]4O[C@]5(C)[C@H]6C[C@H](O[C@@H]7O[C@@H](OC)C[C@@]76O)[C@]5(O)[C@@]4(C)[C@H](C(=O)CO)[C@]1(C)[C@@H]32	inactive	Non-Toxic		
C/C=C(\C)C(=O)O[C@H]1C[C@@H](OC(C)=O)[C@@]2(C)CO[C@H]3[C@@H](O)[C@@](C)(C4=C(C)[C@H](c5ccoc5)CC4=O)[C@H](C(=O)CO)[C@]1(C)[C@@H]32	inactive	Non-Toxic		
C/C=C(\C)C(=O)O[C@@H]1C[C@H](OC(C)=O)[C@]23CO[C@H](CO)[C@H]2[C@](C)([C@]24O[C@@]2(C)[C@H]2C[C@@H]4O[C@@H]4O[C@H](OCC)C[C@@]42O)[C@H](O)[C@@H]2OC[C@@]1(C(=O)OC)[C@H]23	inactive	Non-Toxic		
CC(=O)OCC[C@H]1[C@]2(C)C3=C(C)[C@H](c4ccoc4)C[C@H]3O[C@@H]2[C@@H]2OC[C@]3(C)[C@H](OC(C)=O)C[C@H](OC(C)=O)[C@@]1(C)[C@@H]23	inactive	Non-Toxic		
C/C=C(\C)C(=O)O[C@H]1C[C@@H](OC(C)=O)[C@@]2(C)CO[C@H]3[C@H]4O[C@]5(C)[C@H]6C[C@H](O[C@@H]7OC=C[C@@]76O)[C@]5(O)[C@@]4(C)[C@H](C(=O)CO)[C@]1(C)[C@@H]32	inactive	Non-Toxic		
CC(=O)O[C@H]1C[C@@H](OC(C)=O)[C@@]2(C)CO[C@H]3[C@@H](O)[C@@]4(C)C5=CC[C@@H](c6ccoc6)[C@]5(C)OCC[C@@H]4[C@]1(C)[C@@H]32	inactive	Non-Toxic		
C/C=C(\C)C(=O)O[C@H]1C[C@@H](OC(C)=O)[C@@]2(C)CO[C@H]3[C@@H](O)[C@]4(C)[C@H](C[C@@H]5O[C@H]6CC(c7ccoc7)=C(C)[C@@]64O5)[C@]1(C)[C@@H]32	inactive	Non-Toxic		
C/C=C(\C)C(=O)O[C@@H]1C[C@H](OC(C)=O)[C@]23CO[C@H](CO)[C@H]2[C@](C)([C@]24O[C@@]2(C)[C@H]2C[C@@H]4O[C@@H]4O[C@H](OC)C[C@@]42O)[C@H](O)[C@@H]2OC[C@@]1(C(=O)OC)[C@H]23	inactive	Non-Toxic		
CC(=O)O[C@@H]1C[C@H](OC(=O)c2ccccc2)[C@@]2(C)[C@H]3[C@@H](OC[C@]13C)[C@@H](O)[C@@]1(C)C3=C(C)[C@H](c4ccoc4)C[C@@H]3OCC[C@@H]12	inactive	Non-Toxic		
C/C=C(\C)C(=O)O[C@H]1C[C@@H](OC(C)=O)[C@@]2(C)CO[C@H]3[C@@H](O)[C@@]4(C)C5=C(C)[C@H](c6ccoc6)C[C@@H]5O[C@H](OC)C[C@@H]4[C@]1(C)[C@@H]32	inactive	Non-Toxic	4.5	3.4
C/C=C(\C)C(=O)O[C@H]1C[C@@H](OC(C)=O)[C@@]2(C)CO[C@H]3[C@@H](O)[C@@]4(C)C5=C(C)[C@H](c6ccoc6)C[C@@H]5OCC[C@@H]4[C@]1(C)[C@@H]32	inactive	Non-Toxic	5.2	2.7
CC(=O)O[C@H]1C[C@@H](OC(C)=O)[C@@]2(C)CO[C@H]3[C@@H](O)[C@@]4(C)C5=CC[C@@H](c6ccoc6)[C@]5(C)CC[C@@H]4[C@]1(C)[C@@H]32 [DIACETYLVILASININ]	inactive	Non-Toxic	18.3	7.8
C/C=C(\C)C(=O)O[C@H]1C[C@@H](OC(C)=O)[C@@]2(C)CO[C@H]3[C@@H](O)[C@@]4(C)C5=C(C)[C@H](c6ccoc6)C[C@@H]5O[C@@H](O)C[C@@H]4[C@]1(C)[C@@H]32	inactive	Non-Toxic		
C/C=C(\C)C(=O)O[C@H]1C[C@@H](OC(C)=O)[C@@]2(C)CO[C@H]3[C@@H](O)[C@@]4(C)C5=C(C)[C@H](C6=CCOC6=O)C[C@@H]5OCC[C@@H]4[C@]1(C)[C@@H]32	inactive	Non-Toxic		
C/C=C(\C)C(=O)O[C@H]1C[C@@H](OC(C)=O)[C@@]2(C)CO[C@H]3[C@@H](O)[C@@]4(C)C5=C(C)[C@H](C6=CCOC6=O)C[C@@H]5O[C@@H](OC)C[C@@H]4[C@]1(C)[C@@H]32	inactive	Non-Toxic		
C/C=C(\C)C(=O)O[C@H]1C[C@@H](OC(C)=O)[C@@]2(C(=O)OC)CO[C@H]3[C@H]4O[C@]5(C)[C@H]6C[C@H](O[C@@H]7OC=C[C@@]76O)[C@]5(O)[C@@]4(C)[C@H](C(=O)CO)[C@]1(C)[C@@H]32	inactive	Non-Toxic		
C/C=C(\C)C(=O)O[C@H]1C[C@@H](OC(C)=O)[C@@]2(C)CO[C@H]3[C@@H](O)[C@@]4(C)C5=C(C)[C@H](c6ccoc6)C[C@@H]5O[C@@H](OCC)C[C@@H]4[C@]1(C)[C@@H]32	inactive	Non-Toxic		
C/C=C(\C)C(=O)O[C@H]1C[C@@H](OC(C)=O)[C@@]2(C)CO[C@H]3[C@@H](O)[C@@]4(C)C5=C(C)[C@H](C6=CCOC6=O)C[C@@H]5O[C@@H](OCC)C[C@@H]4[C@]1(C)[C@@H]32	inactive	Non-Toxic		
CC(=O)O[C@H]1C[C@@H](OC(C)=O)[C@@]2(C)CO[C@H]3[C@@H](O)[C@@]4(C)C5=C(C)[C@H](c6ccoc6)C[C@@H]5OCC[C@@H]4[C@]1(C)[C@@H]32	inactive	Non-Toxic		
C/C=C(\C)C(=O)O[C@@H]1C[C@H](OC(C)=O)[C@]23CO[C@H](CO)[C@H]2[C@](C)([C@]24O[C@@]2(C)[C@H]2C[C@@H]4O[C@@H]4O[C@H](OC)C[C@]42O)[C@H](O)[C@@H]2OC[C@@]1(C(=O)OC)[C@H]23	inactive	Non-Toxic		
COc1ccc(CCN(C)CCCC(C#N)(c2ccc(OC)c(OC)c2)C(C)C)cc1OC (stereo not drawn) [VERAPAMIL]				9.2
C/C=C(\C)C(=O)O[C@H]1C[C@@H](OC(C)=O)[C@@]2(C)CO[C@H]3[C@@H](O)[C@@]4(C)C5=CC[C@@H](c6ccoc6)[C@]5(C)OCC[C@@H]4[C@]1(C)[C@@H]32	inactive	Non-Toxic		
C/C=C(\C)C(=O)O[C@H]1C[C@@H](OC(C)=O)[C@@]2(C)CO[C@H]3[C@@H](O)[C@@]4(C)C5=C(C)[C@H](c6ccoc6)C[C@@H]5O[C@@H](OC)C[C@@H]4[C@]1(C)[C@@H]32	inactive	Non-Toxic		
